Converted amounts (≈) assume the structure as drawn. Read-outs that look alike come from different tables or passages of the source.
How the values were obtained:
Evans blue permeability = Evans blue permeability assay; details: in vivo
[1] = Solubility by the equilibrium (saturation) technique; type: physicochemical; details: 20-25° C.
Experimental: The solubilities of 1-azaxanthone in several solvents were determined at 20-25° C. by the equilibrium (saturation) technique, measuring the concentration spectrophotometrically at 335 nm or by high pressure liquid chromatography/spectrophotometry. The following values (in mg/ml) were obtained: water: 0.08; 0.1 N HCl: 0.07; 0.1 N NaOH: 0.07; buffer pH 7.4: 0.06; methanol: 7.6; ethanol: 6.2; propyleneglycol: 5.0; ethyl acetate: 20; chloroform: >50; dioxane: 65.

rabbits [2] = assay: Lipopolysaccharide hyperthermia in rabbits with established fever; type: in vivo; details: 200 mg/kg i.p.
Experimental: (§1) Sprague-Dawley rats, Swiss mice, California rabbits and mongrel guinea pigs and cats were used. 1-azaxanthone was administered as a suspension in 0.5 % w/v of carboxymethyl-cellulose in distilled water for oral and i.p. administration. When administered i.v. or to the nutrient liquid of the isolated tissues, a solution of the compound in isopropylidenglycerol (15 mg/ml) was used.
Hyperthermia induced in rabbits by i.v. injection of lipopolysaccharide of Escherichia coli (according to C. A. Winter and G. W. Nuss, Toxic. Appl. Pharmacol. 1963, 5, 247). […] The compound was also effective when administered to rabbits with established fever; for example, when 200 mg/kg of 1-azaxanthone were administered i.p. to a group of 5 rabbits from a total of 10 with mean hyperpyrexia of +1.15° C. 2 hours after the lipopolysaccharide injection, the hyperpyrexia of the treated group was +0.7° C. at 2 hours and +0.1° C. at 3 hours, while the hyperpyrexia of the untreated animals was 1.5° C. at 2 hours and 1.15° C. at 3 hours (all periods after administration of the test compound).

rats [3] = assay: Diuretic activity in rats; type: in vivo; details: 10 mg/kg oral
Experimental: as §1
1-azaxanthone was administered orally to rats (groups of 10) in a volume of 5 ml/rat immediately before allocating the animals to metabolism cages. The total volume of urine was measured 6 and 24 hours later. 10 mg/kg of 1-azaxanthone increased the total volume with respect to the control group by 94% in the first 6 hours and 44% in the 24 hours period.

rats [4] = assay: D'Amour and Smith test in rats; type: in vivo; details: oral dose of ca. 100 mg/kg, 1 hour before testing
Experimental: as §1
"D'Amour and Smith" test in rats (see J. Pharmacol. Exptl. Therap., 1941, 72, 74). An analgesimeter LETICA model 7100 was used. An oral dose of ca. 100 mg/kg of 1-azaxanthone, administered 1 hour before testing produced analgesia in 50% of the animals.

cats = assay: Physiologic peristaltic movements in cats; type: in vivo; details: 4 mg/kg endovenously
Experimental: as §1

granuloma tissue = assay: Cotton-pellet granuloma; type: in vivo; details: 200 mg/kg/day per os, 5 consecutive days
Experimental: as §1
Cotton-pellet granuloma (according to R. Meier et al., Experientia (Basel), 1950, 6, 469).

[5] = tested on: bilaterally suprarenalectomized rats; assay: Carrageenan paw oedema in bilaterally suprarenalectomized rats; type: in vivo; details: 200 mg/kg per os
Experimental: as §1
Carrageenan rat paw oedema (according to C. A. Winter et al., Proc. Soc. Exptl. Biol. N.Y. 1962, 111, 544).

central nervous system = assay: Effect on the central nervous system; type: in vivo, mice and rats
Guinea pig ileum = Guinea pig ileum in vitro spasmolytic assay; details: Cavia porcellus, read-out: ED50 (dose which inhibits the response of the ileum to the agonist by 50%)
Experimental: as §1
Guinea pig ileum (according to R. Magnus, Pflugers Arch. Ges. Physiol. 1904, 102, 123). In this "in vitro" assay 1-azaxanthone had the following ED50 with different agonists (dose which inhibits the response of the ileum to the agonists by 50%): […]

mice [6] = assay: Phenyl-p-benzoquinone induced writhing in mice; type: in vivo; details: Mus musculus; oral; 95% confidence limits 6.1-11.8
Experimental: as §1
Phenyl-p-benzoquinone induced writhing in mice (according to E. A. Siegmund et al., J. Pharmacol. Exptl. Therap. 1957, 119, 453). […] I

rats [7] = assay: 6 months toxicity evaluation in rats; type: in vivo; details: 25, 50 and 100 mg/kg/day p.o.
mice [8] = assay: Charcoal intestinal transit in mice; type: in vivo
Experimental: as §1
Charcoal intestinal transit in mice. 1-azaxanthone was administered i.p. 1 hour before the oral administration of 0.1 ml/mouse of an active charcoal suspension (10 g of charcoal and 1 g of gum arabicum +70 ml of distilled water). 1.5 hours after the charcoal administration the animals were sacrificed, and the length travelled by the charcoal from the pylorus was measured.

granuloma pouch = assay: Granuloma pouch; details: in vivo
[9] = tested on: turpentine-induced pleurisy; assay: Turpentine-induced pleurisy; details: in vivo
rabbits [10] = assay: Hyperthermia induced in rabbits by lipopolysaccharide of Escherichia coli, preventive; type: in vivo; details: 0.1 μg/kg lipopolysaccharide
Experimental: Sprague-Dawley rats, Swiss mice, California rabbits and mongrel guinea pigs and cats were used. 1-azaxanthone was administered as a suspension in 0.5 % w/v of carboxymethyl-cellulose in distilled water for oral and i.p. administration.

rats [11] = assay: Yeast-induced hyperthermia in rats; type: in vivo
Experimental: as §1
Yeast-induced hyperthermia in rats (according to U. M. Teotino et al., J. Med. Chem. 1963, 6, 248). The test compound was administered by oral route 1 hour before the s.c. injection of the pyrogenic agent.

[12] = tested on: Mycob. Butyricum induced arthritis; assay: Mycob. Butyricum induced arthritis; type: in vivo; details: only in preventative treatment
Text: Butyricum induced arthritis (only in preventative treatment).

O=c1c2ccccc2oc2ncccc12 [1-azaxanthone]
activity in Evans blue permeability assay (Evans blue permeability): showed activity | solubility ([1]; 0.1 N HCl): 70 µg/mL (≈ 355 µM) | solubility ([1]; 0.1 N NaOH): 70 µg/mL (≈ 355 µM) | solubility ([1]; aqueous buffer, buffer pH 7.4): 60 µg/mL (≈ 304 µM) | solubility ([1]; organic solvent or mixture, chloroform): > 50000 µg/mL | solubility ([1]; organic solvent or mixture, dioxane): 65000 µg/mL (≈ 330000 µM) | solubility ([1]; organic solvent or mixture, ethanol): 6200 µg/mL (≈ 31400 µM) | solubility ([1]; organic solvent or mixture, ethyl acetate): 20000 µg/mL (≈ 101000 µM) | solubility ([1]; organic solvent or mixture, methanol): 7600 µg/mL (≈ 38500 µM) | solubility ([1]; organic solvent or mixture, propyleneglycol): 5000 µg/mL (≈ 25400 µM) | solubility ([1]; water): 80 µg/mL (≈ 406 µM) | hyperpyrexia of the treated group (rabbits [2]; 2 hours after administration (untreated 1.5° C.)): +0.7 °C | hyperpyrexia of the treated group (rabbits [2]; 3 hours after administration (untreated 1.15° C.)): +0.1 °C | sodium excretion (rats [3]): increased | increase of total urine volume with respect to control (rats [3]; 24 hours period): 44% | increase of total urine volume with respect to control (rats [3]; first 6 hours): 94% | animals with analgesia (rats [4]): 50% | inhibition of physiologic peristaltic movements (cats): inhibited physiologic peristaltic movements | inhibition of weight of dried granuloma tissue (granuloma tissue): 17.4% | inhibition of weight of wet granuloma tissue (granuloma tissue): 13.5% | inhibition of oedema [5]: 39% | activity on the central nervous system (central nervous system; in vivo): Clear activity on the central nervous system was not observed | signs of depression (central nervous system; mice and rats at high doses): some signs of depression | IC50 (Guinea pig ileum; agonist: Acetylcholine): 14.3 µg/mL (≈ 72.3 µM) | IC50 (Guinea pig ileum; agonist: BaCl2): 19.7 µg/mL (≈ 100 µM) | IC50 (Guinea pig ileum; agonist: Histamine): 22.9 µg/mL (≈ 116 µM) | IC50 (Guinea pig ileum; agonist: Nicotine): 27.8 µg/mL (≈ 141 µM) | ED50 (mice [6]): 8.9 mg/kg | toxicity results compared with the 92 days study (rats [7]): almost the same as in the 92 days study | inhibition of charcoal intestinal transit (mice [8]; 4 mg/kg i.p.): 15% | inhibition of charcoal intestinal transit (mice [8]; 6.2 mg/kg i.p.): 22% | inhibition of charcoal intestinal transit (mice [8]; 12.5 mg/kg i.p.): 37% | inhibition of charcoal intestinal transit (mice [8]; doses lower than 4 mg/kg i.p.): inactive | activity in granuloma pouch (granuloma pouch): showed activity | activity in turpentine-induced pleurisy [9]: showed activity | reduction of the increase in rectal temperature (rabbits [10]; 100 mg/kg i.p., control increase 1.85° C.): 0.7 °C | protection against increase in rectal temperature (rabbits [10]; 200 mg/kg i.p.): completely protected the animals | antipyretic effect (rats [11]; 0.375 mg/kg, 2nd and 3rd hours): statistically significant antipyretic effect | prevention of hyperthermia (rats [11]; 6.2 mg/kg oral, 4 hours after yeast injection (control increase 1.8° C.)): completely prevented the hyperthermia | decrease of hyperthermia with respect to control increase (rats [11]; 6.2 mg/kg oral, 6 hours after yeast injection (control total increase 1.4° C.)): 0.8 °C | activity in Mycob. Butyricum induced arthritis [12]: showed activity
